Results on three compounds are retold here after patent US20060257543A1, “Molecules comprising linked organic moieties as flavor modifiers for comestible compositions” (priority 2005, published 2006).

Series [1] addresses T1, hT1R2/hT1R3 sweet receptor expressed in an HEK293 cell line (Homo sapiens, UniProt Q7RTX0+Q8TE23).
T1 construct: expressed in transfected cells; host or cells: HEK293 derivative, clone S-9
T1 sequence (Q8TE23 20-839): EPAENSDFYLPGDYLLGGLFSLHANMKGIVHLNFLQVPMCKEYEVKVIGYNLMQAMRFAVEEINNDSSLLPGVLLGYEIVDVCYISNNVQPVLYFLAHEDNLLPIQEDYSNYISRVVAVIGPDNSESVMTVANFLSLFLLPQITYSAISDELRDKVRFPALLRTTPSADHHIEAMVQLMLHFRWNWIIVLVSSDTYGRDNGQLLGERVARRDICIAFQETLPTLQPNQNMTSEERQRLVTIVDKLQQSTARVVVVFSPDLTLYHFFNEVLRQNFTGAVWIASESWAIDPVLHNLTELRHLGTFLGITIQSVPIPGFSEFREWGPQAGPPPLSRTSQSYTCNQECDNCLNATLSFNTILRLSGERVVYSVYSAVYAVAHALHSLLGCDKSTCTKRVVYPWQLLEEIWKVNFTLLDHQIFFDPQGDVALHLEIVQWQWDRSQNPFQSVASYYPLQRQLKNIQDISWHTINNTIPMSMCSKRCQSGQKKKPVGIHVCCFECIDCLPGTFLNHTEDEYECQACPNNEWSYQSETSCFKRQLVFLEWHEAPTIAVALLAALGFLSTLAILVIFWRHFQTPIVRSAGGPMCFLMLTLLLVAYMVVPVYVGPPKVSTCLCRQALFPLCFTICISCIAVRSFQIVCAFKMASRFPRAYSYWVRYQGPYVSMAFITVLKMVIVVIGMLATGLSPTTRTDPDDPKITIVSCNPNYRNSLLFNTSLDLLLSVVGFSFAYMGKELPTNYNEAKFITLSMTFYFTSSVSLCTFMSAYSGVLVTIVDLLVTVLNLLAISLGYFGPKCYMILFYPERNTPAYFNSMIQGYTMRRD
T1 sequence (Q7RTX0 21-852): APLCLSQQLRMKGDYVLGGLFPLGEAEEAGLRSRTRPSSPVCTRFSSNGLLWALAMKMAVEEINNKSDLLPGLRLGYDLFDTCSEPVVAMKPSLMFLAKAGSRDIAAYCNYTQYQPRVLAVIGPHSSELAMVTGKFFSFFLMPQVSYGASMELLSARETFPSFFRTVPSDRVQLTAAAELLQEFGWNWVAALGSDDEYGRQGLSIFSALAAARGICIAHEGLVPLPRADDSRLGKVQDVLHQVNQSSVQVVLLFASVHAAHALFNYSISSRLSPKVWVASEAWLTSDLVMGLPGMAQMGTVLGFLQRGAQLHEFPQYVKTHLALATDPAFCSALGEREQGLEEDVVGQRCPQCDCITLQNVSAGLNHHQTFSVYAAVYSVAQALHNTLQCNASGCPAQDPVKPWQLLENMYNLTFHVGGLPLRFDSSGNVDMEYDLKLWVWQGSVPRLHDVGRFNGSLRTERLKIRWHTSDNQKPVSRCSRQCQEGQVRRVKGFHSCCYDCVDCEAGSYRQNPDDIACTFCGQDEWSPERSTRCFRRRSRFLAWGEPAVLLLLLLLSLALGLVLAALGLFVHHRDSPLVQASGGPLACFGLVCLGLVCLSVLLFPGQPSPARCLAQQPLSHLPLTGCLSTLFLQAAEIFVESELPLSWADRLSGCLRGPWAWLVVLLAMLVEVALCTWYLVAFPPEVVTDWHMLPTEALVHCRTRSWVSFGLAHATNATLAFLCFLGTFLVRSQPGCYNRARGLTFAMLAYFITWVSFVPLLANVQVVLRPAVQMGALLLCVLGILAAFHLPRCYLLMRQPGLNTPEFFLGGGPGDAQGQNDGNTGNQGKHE
In words: In vitro hT1R2/hT1R3 sweet taste receptor activation assay (FLIPR, dose response). In kind it is cell-based. The conditions noted are these: read-out: EC50 for activation of a hT1R2/hT1R3 sweet receptor. The source says:
An HEK293 cell line derivative (see Chandrashekar, J., Mueller, K. L., Hoon, M. A., Adler, E., Feng, L., Guo, W., Zuker, C. S., Ryba, N. J.,. Cel,l 2000, 100, 703-711.) that stably expresses Gα15 and hT1R2/hT1R3 (see Li, X., Staszewski, L., Xu, H., Durick, K., Zoller, M., Adler, E. Proc Natl Acad Sci USA 2002, 99, 4692-4696, and PCT Publication No. WO 03/001876) was used to identify compounds with sweet taste enhancing properties. These references are hereby incorporated herein by reference for their methods of preparing and maintaing the cell lines discussed below, and for their methods for screeing compounds that inhibit the biological receptors.
Compounds covered in this document were initially selected based on their activity on the hT1R2/hT1R3—HEK293-Gα15 cell line (Li, et al. vide supra). Activity was determined using an automated fluorometric imaging assay on a FLIPR instrument (Fluorometric Intensity Plate Reader, Molecular Devices, Sunnyvale, Calif.) (designated FLIPR assay). Cells from one clone (designated S-9 cells) were seeded into 384-well plates (at approximately 50,000 cells per well) in a medium containing DMEM Low Glucose (Invitrogen, Carlsbad, Calif.), 10% dialyzed fetal bovine serum (Invitrogen, Carlsbad, Calif.), 100 Units/ml Penicillin G, and 100 μg/ml Streptomycin (Invitrogen, Carlsbad, Calif.) (Li, et al. vide supra) see also World Patent No. WO 03/001876 A2). S-9 cells were grown for 24 hours at 37° C. S-9 cells were then loaded with the calcium dye Fluo-3AM (Molecular Probes, Eugene, Oreg.), 4 μM in a phosphate buffered saline (D-PBS) (Invitrogen, Carlsbad, Calif.), for 1 hour at room temperature. After replacement with 25 μl D-PBS, stimulation was performed in the FLIPR instrument and at room temperature by the addition of 25 μl D-PBS supplemented with different stimuli at concentrations corresponding to twice the desired final level. Receptor activity was quantified by determining the maximal fluorescence increases (using a 480 nm excitation and 535 nm emission) after normalization to basal fluorescence intensity measured before stimulation.
For dose-responses analysis, stimuli were presented in duplicates at 10 different concentrations ranging from 60 nM to 30 μM. Activities were normalized to the response obtained with 400 mM D-fructose, a concentration that elicits maximum receptor response. EC50s were determined using a non-linear regression algorithm (using a Senomyx, Inc. software), where the Hill slope, bottom asymptotes and top asymptotes were allow to vary. Identical results were obtained when analyzing the dose-response data using commercially available software for non-linear regression analysis such as GraphPad PRISM (San Diego, Calif.).

SMILES strings stand for the structures.

`CC(C)Oc1ccc(NC(=S)NCc2ccsc2)cc1` [Example 3, 1-(4-Isopropoxyphenyl)-3-(thiophen-3-ylmethyl)thiourea] returned a melting point of 80.5 to 81.5 °C. In addition, the EC50 in series [1] was found to be 150 nM.

As for `COc1ccc(CNc2ccccc2C)cc1O` [Example 12, 5-((o-toluidino)methyl)-2-methoxyphenol], the melting point lay in the range of 104 to 105 °C. Moreover, the EC50 in series [1] stood at 2980 nM.

Compound `CC(C)Oc1ccc(NC(=S)NCc2ccoc2)cc1` [Example 4, 1-(furan-3-ylmethyl)-3-(4-isopropoxyphenyl)thiourea] had a melting point of 89 to 90 °C. The EC50 in series [1] came to 230 nM.
